Experimental data from patent publication US20210292330A1, “PYRROLIDINE-FUSED HETEROCYCLES” (Erasca, Inc., priority 2020, published 2021).

Biological target: T1, KRAS 4B G12C protein (Homo sapiens, UniProt P01116, G12C)
T1 construct: This protein contained 188 amino acids in total, including an N-terminal 6-Histidine tag; made in house; host or cells: E. coli BL21
Assay: In vitro covalent adduct formation (CAF) assay by LC-MS
Format: binding
Settings: compound 10 μM, protein 5 μM, 22° C., percentage of protein bound by the compound
Summary of the method: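 Recombinant His-TEV-tagged KRAS 4B G12C (residues 1-169, E. coli) at 5 μM in Tris-buffered saline pH 7.4 was incubated with 10 μM compound (4% DMSO) at 22° C. for one hour, sampling over time. Intact-mass LC-MS free:adduct ratios gave % protein bound; duplicates.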

C=CC(=O)N1CCN(c2nc(OC[C@@H]3CCCN3C)nc3c2CN(Cc2ccccc2)C3)C[C@@H]1CC#N [1-77]
CAF (10 minutes/60 minutes) at 10 micromolar: 10 minutes: 27% | CAF (10 minutes/60 minutes) at 10 micromolar: 60 minutes: 43%

C=CC(=O)N1CCN(c2nc(OC[C@@H]3CCCN3C)nc3c2CN(Cc2cc(C(F)F)ccc2C)C3)[C@@H](C)C1 [1-64]
CAF (10 minutes/60 minutes) at 10 micromolar: 10 minutes: 0%/ 0% | CAF (10 minutes/60 minutes) at 10 micromolar: 60 minutes: 0%/ 0%

CN1CCC[C@H]1COc1nc2c(c(N3CCN(C(=O)C45CC4C5)[C@@H](CC#N)C3)n1)CN(Cc1ccccc1Cl)C2 (stereo partly drawn) [1-317]
CAF (10 minutes/60 minutes) at 10 micromolar: 10 minutes: 0%/ 0% | CAF (10 minutes/60 minutes) at 10 micromolar: 60 minutes: 0%/ 0%

C=CC(=O)N1CCN(c2nc(OC[C@@H]3CCCN3C)nc3c2CN(Cc2c(Cl)ccc4ccccc24)C3)C[C@@H]1CC#N [1-236]
CAF (10 minutes/60 minutes) at 10 micromolar: 10 minutes: 94% | CAF (10 minutes/60 minutes) at 10 micromolar: 60 minutes: 95%

C=CC(=O)N1CC2CC(=O)CC(C1)N2c1nc(O[C@@H]2CN(C)C[C@H]2OC)nc2c1CN(C1CCc3ccccc31)C2 (stereo partly drawn) [1-252]
CAF (10 minutes/60 minutes) at 10 micromolar: 10 minutes: 0%/ 0% | CAF (10 minutes/60 minutes) at 10 micromolar: 60 minutes: 0%/ 0%

C=C(F)C(=O)N1CCN(c2nc(OC[C@@H]3CCCN3C)nc3c2CN(Cc2c(Cl)ccc4ccccc24)C3)C[C@@H]1CC#N [1-254]
CAF (10 minutes/60 minutes) at 10 micromolar: 10 minutes: 31% | CAF (10 minutes/60 minutes) at 10 micromolar: 60 minutes: 73%

C=CC(=O)N1CCN(c2nc(OC[C@@H]3CCCN3CC(C)C)nc3c2CN(C2CCc4ccccc42)C3)C[C@@H]1CC#N (stereo partly drawn) [1-192]
CAF (10 minutes/60 minutes) at 10 micromolar: 10 minutes: 53% | CAF (10 minutes/60 minutes) at 10 micromolar: 60 minutes: 65%

C=C(F)C(=O)N1CCN(c2nc(OC[C@@H]3CCCN3C)nc3c2CN(Cc2n[nH]cc2C)C3)C[C@@H]1CC#N [1-344]
CAF (10 minutes/60 minutes) at 10 micromolar: 10 minutes: 0% | CAF (10 minutes/60 minutes) at 10 micromolar: 60 minutes: 2%

C=CC(=O)N1CCN(c2nc(OC[C@@H]3CCCN3C)nc3c2CN(Cc2c(Cl)cccc2OC(F)F)C3)C[C@H]1C [1-105]
CAF (10 minutes/60 minutes) at 10 micromolar: 10 minutes: 0%/ 0% | CAF (10 minutes/60 minutes) at 10 micromolar: 60 minutes: 0%/ 0%

C=CC(=O)N1CCN(c2nc(OC[C@@H]3CCCN3C)nc3c2CN(C2CC(C)(C)c4ccccc42)C3)C[C@@H]1CC#N (stereo partly drawn) [1-169]
CAF (10 minutes/60 minutes) at 10 micromolar: 10 minutes: 63% | CAF (10 minutes/60 minutes) at 10 micromolar: 60 minutes: 70%

C=CC(=O)N1CCN(c2nc(OCC3CCCC3)nc3c2CN(Cc2c(O)cccc2F)C3)C[C@@H]1CC#N [1-71]
CAF (10 minutes/60 minutes) at 10 micromolar: 10 minutes: 9% | CAF (10 minutes/60 minutes) at 10 micromolar: 60 minutes: 45%

C=CC(=O)N1CCN(c2nc(OC[C@@H]3CCCN3C)nc3c2CN(Cc2cccc4ncccc24)C3)C[C@@H]1CC#N [1-318]
CAF (10 minutes/60 minutes) at 10 micromolar: 10 minutes: 1% | CAF (10 minutes/60 minutes) at 10 micromolar: 60 minutes: 11%

C=CC(=O)N1CCN(c2nc(OC[C@@H]3CCCN3C)nc3c2CN(C2CCc4ccccc42)C3)C[C@H]1C#N (stereo partly drawn) [1-145]
CAF (10 minutes/60 minutes) at 10 micromolar: 10 minutes: 60% | CAF (10 minutes/60 minutes) at 10 micromolar: 60 minutes: 74%

C=CC(=O)N1CCN(c2nc(OCC3CC3)nc3c2CN(C2CCc4ccccc42)C3)C[C@@H]1CC#N (stereo partly drawn) [1-142]
CAF (10 minutes/60 minutes) at 10 micromolar: 10 minutes: 7% | CAF (10 minutes/60 minutes) at 10 micromolar: 60 minutes: 36%

C=CC(=O)N1CCN(c2nc(OC[C@@H]3CCCN3C)nc3c2CN(Cc2cccc4ncoc24)C3)C[C@@H]1CC#N [1-203]
CAF (10 minutes/60 minutes) at 10 micromolar: 10 minutes: 11% | CAF (10 minutes/60 minutes) at 10 micromolar: 60 minutes: 52%

C=CC(=O)N1C[C@H](C)N(c2nc(OC[C@@H]3CCCN3C)nc3c2CN(Cc2c(C)ccc(O)c2C)C3)C[C@H]1C [1-21]
CAF (10 minutes/60 minutes) at 10 micromolar: 10 minutes: 20% | CAF (10 minutes/60 minutes) at 10 micromolar: 60 minutes: 63%

C=CC(=O)N1CCN(c2nc(OC[C@@H]3CCCN3C)nc3c2CN(Cc2cccc4c2CCO4)C3)C[C@@H]1CC#N [1-143]
CAF (10 minutes/60 minutes) at 10 micromolar: 10 minutes: 48% | CAF (10 minutes/60 minutes) at 10 micromolar: 60 minutes: 70%

C=CC(=O)N1C[C@H](C)N(c2nc(OC[C@@H]3CCCN3C)nc3c2CN(Cc2cc(O)ccc2F)C3)C[C@H]1C [1-32]
CAF (10 minutes/60 minutes) at 10 micromolar: 10 minutes: 7% | CAF (10 minutes/60 minutes) at 10 micromolar: 60 minutes: 41%

C=CC(=O)N1CCN(c2nc(OC[C@@H]3CCCN3C)nc3c2CN(Cc2cc(O)ccc2CC)C3)C[C@@H]1CC#N [1-184]
CAF (10 minutes/60 minutes) at 10 micromolar: 10 minutes: 96% | CAF (10 minutes/60 minutes) at 10 micromolar: 60 minutes: 97%

C=C(F)C(=O)N1CCN(c2nc(OC[C@@H]3CCCN3C)nc3c2CN(Cc2cc(Cl)ccc2C(F)(F)F)C3)C[C@@H]1CC#N [1-222]
CAF (10 minutes/60 minutes) at 10 micromolar: 10 minutes: 3% | CAF (10 minutes/60 minutes) at 10 micromolar: 60 minutes: 24%

C=C(F)C(=O)N1CCN(c2nc(OC[C@@H]3CCCN3C)nc3c2CN(Cc2nc(N)ccc2Cl)C3)C[C@@H]1CC#N [1-339]
CAF (10 minutes/60 minutes) at 10 micromolar: 10 minutes: 83% | CAF (10 minutes/60 minutes) at 10 micromolar: 60 minutes: 92%

C=CC(=O)N1CCN(c2nc(OC[C@@H]3CCCN3C)nc3c2CN(Cc2cc(Cl)ccc2F)C3)C[C@@H]1CC#N [1-49]
CAF (10 minutes/60 minutes) at 10 micromolar: 10 minutes: 81% | CAF (10 minutes/60 minutes) at 10 micromolar: 60 minutes: 97%

C=CC(=O)N1CCN(c2nc(OC[C@@H]3CCCN3C)nc3c2CN(Cc2c(Cl)cccc2OC(F)F)C3)CC1 [1-94]
CAF (10 minutes/60 minutes) at 10 micromolar: 10 minutes: 0%/ 0% | CAF (10 minutes/60 minutes) at 10 micromolar: 60 minutes: 0%/ 0%

C=CC(=O)N1CCN(c2nc(OCCCN3CCOCC3)nc3c2CN(C2CCc4ccccc42)C3)C[C@@H]1CC#N (stereo partly drawn) [1-131]
CAF (10 minutes/60 minutes) at 10 micromolar: 10 minutes: 76% | CAF (10 minutes/60 minutes) at 10 micromolar: 60 minutes: 97%

C=CC(=O)N1CCN(c2nc(OC[C@@H]3CCCN3C)nc3c2CN(C2CCc4ccccc42)C3)[C@@H](C#N)C1 (stereo partly drawn) [1-150]
CAF (10 minutes/60 minutes) at 10 micromolar: 10 minutes: 21% | CAF (10 minutes/60 minutes) at 10 micromolar: 60 minutes: 31%

C=C(F)C(=O)N1CCN(c2nc(OC[C@@H]3CCCN3C)nc3c2CN(Cc2c(CC)ccc(O)c2C)C3)C[C@@H]1CC#N [1-253]
CAF (10 minutes/60 minutes) at 10 micromolar: 10 minutes: 93% | CAF (10 minutes/60 minutes) at 10 micromolar: 60 minutes: 94%

C=CC(=O)N1CCN(c2nc(OC[C@@H]3CCCN3C)nc3c2CN(Cc2cccc4[nH]ncc24)C3)C[C@@H]1CC#N [1-108]
CAF (10 minutes/60 minutes) at 10 micromolar: 10 minutes: 84% | CAF (10 minutes/60 minutes) at 10 micromolar: 60 minutes: 97%

C=CC(=O)N1CCN(c2nc(OC[C@@H]3C[C@H](F)CN3C)nc3c2CN(C2CCc4ccccc42)C3)C[C@@H]1CC#N (stereo partly drawn) [1-128]
CAF (10 minutes/60 minutes) at 10 micromolar: 10 minutes: 52% | CAF (10 minutes/60 minutes) at 10 micromolar: 60 minutes: 63%

C=C(F)C(=O)N1CCN(c2nc(OCCC(F)F)nc3c2CN(C2CCc4ccccc42)C3)C[C@@H]1CC#N (stereo partly drawn) [1-167]
CAF (10 minutes/60 minutes) at 10 micromolar: 60 minutes: NA/ 0%

C=CC(=O)N1CCN(c2nc(OC[C@@H]3CCC(=O)N3C)nc3c2CN(C2CCc4ccccc42)C3)C[C@@H]1CC#N (stereo partly drawn) [1-122]
CAF (10 minutes/60 minutes) at 10 micromolar: 10 minutes: 21% | CAF (10 minutes/60 minutes) at 10 micromolar: 60 minutes: 57%

C=CC(=O)N1CCN(c2nc(OCCN3CCOCC3)nc3c2CN(Cc2cc(O)ccc2Cl)C3)C[C@@H]1CC#N [1-134]
CAF (10 minutes/60 minutes) at 10 micromolar: 10 minutes: 98%/ 98% | CAF (10 minutes/60 minutes) at 10 micromolar: 60 minutes: 98%/ 98%

C=CC(=O)N1CCN(c2nc(OC[C@@H]3CCCN3C)nc3c2CN(C2CCc4ccccc42)C3)C[C@@H]1Cn1cccn1 (stereo partly drawn) [1-220]
CAF (10 minutes/60 minutes) at 10 micromolar: 10 minutes: 0% | CAF (10 minutes/60 minutes) at 10 micromolar: 60 minutes: 2%

C=CC(=O)N1CCN(c2nc(OC[C@@H]3CCCN3C)nc3c2CN(Cc2cc(OC)ccc2C)C3)[C@@H](C)C1 [1-2]
CAF (10 minutes/60 minutes) at 10 micromolar: 10 minutes: 0% | CAF (10 minutes/60 minutes) at 10 micromolar: 60 minutes: 4%

C=C(F)C(=O)N1CCN(c2nc(OC[C@@H]3CCCN3C)nc3c2CN(C2CCc4ccccc42)C3)C[C@@H]1CC#N (stereo partly drawn) [1-109]
CAF (10 minutes/60 minutes) at 10 micromolar: 10 minutes: 48% | CAF (10 minutes/60 minutes) at 10 micromolar: 60 minutes: 68%

C=CC(=O)N1CCN(c2nc(OC[C@@H]3CCCN3C)nc3c2CN(Cc2c(Cl)ccc(O)c2Cl)C3)C[C@@H]1CC#N [1-321]
CAF (10 minutes/60 minutes) at 10 micromolar: 10 minutes: 88% | CAF (10 minutes/60 minutes) at 10 micromolar: 60 minutes: 90%

C=CC(=O)N1CCN(c2nc(OC[C@@H]3CCCN3C)nc3c2CN(Cc2c(Cl)ccc4nc[nH]c24)C3)C[C@@H]1CC#N [1-229]
CAF (10 minutes/60 minutes) at 10 micromolar: 10 minutes: 94% | CAF (10 minutes/60 minutes) at 10 micromolar: 60 minutes: 95%

C=CC(=O)N1CCN(c2nc(OC[C@@H]3CCCN3C3CC3)nc3c2CN(C2CCc4ccccc42)C3)C[C@@H]1CC#N (stereo partly drawn) [1-198, 2-((2S)-1-acryloyl-4-(2-(((S)-1-cyclopropylpyrrolidin-2-yl)methoxy)-6-(2,3-dihydro-1H-inden-1-yl)-6,7-dihydro-5H-pyrrolo[3,4-d]pyrimidin-4-yl)piperazin-2-yl)acetonitrile]
CAF (10 minutes/60 minutes) at 10 micromolar: 10 minutes: 15% | CAF (10 minutes/60 minutes) at 10 micromolar: 60 minutes: 18%

C=CC(=O)N1CCN(c2nc(O[C@@H]3CN(C)C[C@H]3OC)nc3c2CN(C2CCc4ccccc42)C3)C2COCC21 (stereo partly drawn) [1-227]
CAF (10 minutes/60 minutes) at 10 micromolar: 10 minutes: 0%/ 0% | CAF (10 minutes/60 minutes) at 10 micromolar: 60 minutes: 0%/ 0%
